Test results from patent publication US20120010148A1, “COMBINATION THERAPIES USING NAP” (ALLON THERAPEUTICS INC., priority 2008, published 2012).
Ends that are not written are not given here.

What was measured:
[1] = system: Human SH-SY5Y neuroblastoma; experiment: Clozapine-induced cell death in SH-SY5Y cells, MTS assay; assay type: cell-based; details: clozapine 20 μg/ml, 24 hours, FIG. 1
Text: Clozapine, a widely used anti psychotic drug may be associated with increased cell mortality. It was not known, however, whether NAP ([…], SEQ ID NO:2) treatment would inhibit clozapine associated neuronal death. To address this question and validate the efficiency of using a NAP-clozapine combination drug candidate, an experimental test system in cell culture was established (Heiser et al., Journal of Psychopharmacology 21(8):851-856 (2007)). Human SH-SY5Y neuroblastoma supplemented with 15% fetal calf serum (FCS) (Beit-Haemek, Israel), 1% penicillin-streptomycin, and 1% glutamine were incubated in a 5% CO2 atmosphere. Thirty-six thousand cells/well (in a 96 well plates) were plated 24 hours prior to the clozapine or NAP treatment. Clozapine (CLZ) was obtained from Sigma Chemicals (Sigma, Israel). Thirty-six thousand cells per well (in at least 6 replicate wells) were exposed to clozapine (CLZ, 20 μg/ml) or clozapine (CLZ, 20 μg/ml)+NAP or NAP alone (10^−15M-10^−10 M) for 24 hours at 37° C. Drug and control solutions were dissolved in ethanol. Measurement of metabolic activity and survival was determined by non-radioactive cell proliferation assay (MTS) (Promega, USA) and evaluated by an ELISA-reader at 490 nm wavelength.

STOP+/− male mice = experiment: Mortality under chronic clozapine with or without intranasal NAP; assay type: in vivo, mouse; details: clozapine 10 mg/kg IP daily, n=4
Procedure: STOP+/− male mice (6 months old in average, n=4) received daily doses of 10 mg/kg intraperitoneal injection (IP) of clozapine (5 days a week), for the duration of the experiment (5 weeks). Clozapine (10 mg/kg) was solubilized under acidic conditions (pH ˜2.0 with HCl), and the solutions titrated back to ˜pH 7.4 with NaOH. In addition, these mice received daily intranasal vehicle solution that included the following ingredients (per milliliter): 7.5 mg of NaCl, 1.7 mg of citric acid monohydrate, 3 mg of disodium phosphate dihydrate, and 0.2 mg of benzalkonium chloride solution (50%) (Alcalay et al., Neurosci Lett 361, 128-131, 2004).
A combination of clozapine with NAP experiment included an additional four mice (6 months old in average) that were injected with clozapine and administered with NAP intranasally in the vehicle delineated above (Alcalay et al., Neurosci Lett 361, 128-131, 2004). NAP or vehicle solution was administered daily to mice hand-held in a semi-supine position with nostrils facing the investigator. A pipette tip was used to administer 2.5 μl/nostril. The mouse was hand-held until the solution was totally absorbed (˜10 s).
The experiment continued for 5 weeks.

STOP−/− mice = details: STOP−/− schizophrenia model; cited from earlier work
[2] = system: neurons of the central nervous system; details: in vitro assays and in vivo disease models; cited from earlier work
MS = details: daily subcutaneous injections, 20 mg/injection; cited from earlier work

Question: Which cell death [1] does the source give for `CN1CCN(C2=Nc3cc(Cl)ccc3Nc3ccccc32)CC1` [clozapine, Clozapine] here?
Answer: about 60%

Question: What about the death (STOP+/− male mice; after 2.5 weeks of treatment) of the same compound?
Answer: 50%

Question: What about the “death (cumulative)” value (STOP+/− male mice; at ~4.5 weeks) of the same compound?
Answer: 75%

Question: For `C/C1=C/C[C@@H](/C(C)=C/c2csc(C)n2)OC(=O)C[C@H](O)C(C)(C)C(=O)[C@H](C)[C@@H](O)[C@@H](C)CCC1` [epothilone D], which “synaptic function and behavior” value (STOP−/− mice) is on record?
Answer: ameliorates synaptic function and behavior

Question: With SALLRSIPA as the compound, how does the “survival of neurons in response to various insults” value [2] read?
Answer: keep neurons of the central nervous system alive

Question: With glatiramer acetate as the compound, how does the “relapse rates, progression of disability, new MRI lesions” value (MS) read?
Answer: reduce relapse rates, progression of disability, appearance of new lesions
